Where “and” joins values, the source holds several entries; their conditions need not be identical. Equal entries are not always repeated. Toxic doses and inconclusive results are not listed.
System: P388 leukemia ip, CD2F1 mice, survival T/C
Assay: NCI In Vivo Anticancer Drug Screen. Data for tumor model P388 Leukemia (intraperitoneal) in CD2F1 (CDF1) mice
Conditions: endpoint: median survival time, higher = longer survival
Outline: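 Mice carrying the transplanted tumor received test compound or vehicle. Survival was recorded in each group, and the value is the treated-group measurement divided by that of the vehicle-treated control group.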

[1] = dose: 100.0 mg/kg/injection, schedule: Q04DX002 (ip), vehicle: saline with Tween-80
[2] = dose: 200.0 mg/kg/injection, schedule: Q04DX002 (ip), vehicle: saline with Tween-80
[3] = dose: 100.0 mg/kg/injection, schedule: Q04DX003 (ip), vehicle: saline
[4] = dose: 200.0 mg/kg/injection, schedule: Q04DX003 (ip), vehicle: saline
[5] = dose: 400.0 mg/kg/injection, schedule: Q04DX003 (ip), vehicle: saline
[6] = dose: 100.0 mg/kg/injection, schedule: Q04DX003 (ip), vehicle: saline with Tween-80
[7] = dose: 200.0 mg/kg/injection, schedule: Q04DX003 (ip), vehicle: saline with Tween-80
[8] = dose: 50.0 mg/kg/injection, schedule: Q01DX009 (ip), vehicle: saline with Tween-80
[9] = dose: 100.0 mg/kg/injection, schedule: Q01DX009 (ip), vehicle: saline with Tween-80
[10] = dose: 200.0 mg/kg/injection, schedule: Q01DX009 (ip), vehicle: saline with Tween-80
[11] = dose: 400.0 mg/kg/injection, schedule: Q01DX009 (ip), vehicle: saline with Tween-80
[12] = dose: 60.0 mg/kg/injection, schedule: Q01DX005 (ip), vehicle: saline with Tween-80
[13] = dose: 120.0 mg/kg/injection, schedule: Q01DX005 (ip), vehicle: saline with Tween-80
[14] = dose: 240.0 mg/kg/injection, schedule: Q01DX005 (ip), vehicle: saline with Tween-80
[15] = dose: 50.0 mg/kg/injection, schedule: Q01DX005 (ip), vehicle: Klucel (hydroxypropylcellulose) (HPC)
[16] = dose: 100.0 mg/kg/injection, schedule: Q01DX005 (ip), vehicle: Klucel (hydroxypropylcellulose) (HPC)
[17] = dose: 200.0 mg/kg/injection, schedule: Q01DX005 (ip), vehicle: Klucel (hydroxypropylcellulose) (HPC)

For COC(=O)c1cn[nH]c1CC#N, the T/C [1] was 92 % of control and the T/C [2] was 100 % of control.
In the case of CC(=O)CC(=O)c1ccc(F)cc1.CC(=O)CC(=O)c1ccc(F)cc1.[Cu], the T/C (dose: 10.0 mg/kg/injection, schedule: Q01DX009 (ip), vehicle: saline with Tween-80) is reported as 88 % of control and the T/C (dose: 20.0 mg/kg/injection, schedule: Q01DX009 (ip), vehicle: saline with Tween-80) is reported as 89 % of control.
With COc1cc2c(cc1O)-c1[nH]ncc1CCC2 the T/C [3] was 101 % of control, the T/C [4] was 97 % of control and the T/C [5] was 102 % of control.
With CCSC(=Nc1nc2ccc([N+](=O)[O-])cc2s1)SCC the T/C (dose: 6.25 mg/kg/injection, schedule: Q01DX009 (ip), vehicle: Klucel (hydroxypropylcellulose) (HPC)) was 104 % of control, the T/C (dose: 12.5 mg/kg/injection, schedule: Q01DX009 (ip), vehicle: Klucel (hydroxypropylcellulose) (HPC)) was 111 % of control and the T/C (dose: 25.0 mg/kg/injection, schedule: Q01DX009 (ip), vehicle: Klucel (hydroxypropylcellulose) (HPC)) was 98 % of control.
For O=C(O)C1C(C(=O)O)C2(Cl)C(Cl)=C(Cl)C1(Cl)C2(Cl)Cl.[Mn] (stereo unspecified), the T/C (dose: 50.0 mg/kg/injection, schedule: Q04DX003 (ip), vehicle: saline sonified) was 95 % of control and the T/C (dose: 100.0 mg/kg/injection, schedule: Q04DX003 (ip), vehicle: saline sonified) was 91 % of control.
For CCCCCCOC(=O)C1=C(NC)CCC1, the T/C (dose: 50.0 mg/kg/injection, schedule: Q01DX009 (ip), vehicle: saline) was 106 % of control and the T/C (dose: 100.0 mg/kg/injection, schedule: Q01DX009 (ip), vehicle: saline) was 119 % of control.
For Nc1c(-c2ncc[nH]2)[nH]c2cc(-c3ncc[nH]3)ccc12, the T/C (dose: 15.0 mg/kg/injection, schedule: Q01DX005 (ip), vehicle: Klucel (hydroxypropylcellulose) (HPC)) was 97 % of control, the T/C (dose: 30.0 mg/kg/injection, schedule: Q01DX005 (ip), vehicle: Klucel (hydroxypropylcellulose) (HPC)) was 100 % of control and the T/C (dose: 60.0 mg/kg/injection, schedule: Q01DX005 (ip), vehicle: Klucel (hydroxypropylcellulose) (HPC)) was 99 % of control and 101 % of control.
For CC(C)(C)SC(=O)CCl, the T/C [6] was 116 % of control and the T/C [7] was 89 % of control.
In the case of COP(=O)(OC)/C(=N\NS(=O)(=O)c1ccc(C)cc1)c1ccccc1, the T/C [8] is reported as 100 % of control, the T/C [9] is reported as 103 % of control and the T/C [10] is reported as 117 % of control. For the same compound, the T/C [11] was 119 % of control.
With CC1NC(=O)OC12CCCCC2 (stereo unspecified) the T/C (dose: 25.0 mg/kg/injection, schedule: Q01DX009 (ip), vehicle: saline with Tween-80) was 93 % of control and the T/C [8] was 100 % of control.
In the case of O=C1CS/C(=N/C(=O)Nc2ccc(Cl)cc2)N1, the T/C (dose: 25.0 mg/kg/injection, schedule: Q04DX002 (ip), vehicle: Klucel (hydroxypropylcellulose) (HPC)) is reported as 90 % of control, the T/C (dose: 50.0 mg/kg/injection, schedule: Q04DX002 (ip), vehicle: Klucel (hydroxypropylcellulose) (HPC)) is reported as 88 % of control and the T/C (dose: 100.0 mg/kg/injection, schedule: Q04DX002 (ip), vehicle: Klucel (hydroxypropylcellulose) (HPC)) is reported as 91 % of control. The T/C (dose: 200.0 mg/kg/injection, schedule: Q04DX002 (ip), vehicle: Klucel (hydroxypropylcellulose) (HPC)) was 95 % of control and the T/C (dose: 400.0 mg/kg/injection, schedule: Q04DX002 (ip), vehicle: Klucel (hydroxypropylcellulose) (HPC)) was 87 % of control.
For CCn1c(=O)c(C#N)c2n(CC)c3cc(C)c(C)cc3n2c1=O, the T/C [12] was 90 % of control, the T/C [13] was 86 % of control and the T/C [14] was 86 % of control.
For CCCN(CCC)c1ccc(N=Nc2ccccc2C(=O)O)cc1, the T/C [8] was 102 % of control, the T/C [9] was 105 % of control and the T/C [10] was 112 % of control. The T/C [11] was 110 % of control.
C[n+]1c(-c2ccc(/C=N/Nc3ccnc(N/N=C/c4ccc(-c5cn6ccccc6[n+]5C)cc4)n3)cc2)cn2ccccc21 was tested, and the T/C (dose: 30.0 mg/kg/injection, schedule: Q01DX005 (ip), vehicle: saline with Tween-80) was 150 % of control and the T/C [12] was 88 % of control.
For CC(=O)Nc1ccc(NC(C)=O)c2c1C(=O)c1ccccc1C2=O, the T/C [6] was 100 % of control, the T/C [7] was 100 % of control and the T/C (dose: 400.0 mg/kg/injection, schedule: Q04DX003 (ip), vehicle: saline with Tween-80) was 100 % of control.
For COC(OC)C1(O)CC(C(C)C)OC(=O)N1 (stereo unspecified), the T/C [3] was 100 % of control, the T/C [4] was 108 % of control and the T/C [5] was 100 % of control.
For Nc1nc(C2CCCC2)c(I)c(=O)[nH]1, the T/C [15] was 105 % of control, the T/C [16] was 108 % of control and the T/C [17] was 92 % of control.
CC1(C)C=Cc2c(ccc3c(=O)c(-c4ccccc4)coc23)O1 was tested, and the T/C [12] was 94 % of control, the T/C [13] was 98 % of control and the T/C [14] was 93 % of control.
For COC1=C(OC)C(=O)C(CO)=CC1=O, the T/C (dose: 7.5 mg/kg/injection, schedule: Q01DX005 (ip), vehicle: saline) was 104 % of control and the T/C (dose: 15.0 mg/kg/injection, schedule: Q01DX005 (ip), vehicle: saline) was 87 % of control.
In the case of COc1ccc(NCCc2ccc(-n3ncc(C(=O)NN)c3N)nn2)cc1OC, the T/C (dose: 75.0 mg/kg/injection, schedule: Q01DX005 (ip), vehicle: other) is reported as 93 % of control, the T/C (dose: 150.0 mg/kg/injection, schedule: Q01DX005 (ip), vehicle: other) is reported as 93 % of control and the T/C (dose: 250.0 mg/kg/injection, schedule: Q01DX005 (oral), vehicle: water) is reported as 100 % of control. The T/C (dose: 500.0 mg/kg/injection, schedule: Q01DX005 (oral), vehicle: water) was 107 % of control and the T/C (dose: 1000.0 mg/kg/injection, schedule: Q01DX005 (oral), vehicle: water) was 110 % of control.
In the case of COc1cc(-c2oc3c(OC)cc(OC)c(O)c3c(=O)c2OC)cc(OC)c1OC, the T/C [1] is reported as 96 % of control, the T/C [2] is reported as 105 % of control and the T/C (dose: 400.0 mg/kg/injection, schedule: Q04DX002 (ip), vehicle: saline with Tween-80) is reported as 96 % of control.
With CC(O)C1/C=C/C=C\C(=O)O[C@@H]2C[C@H]3OC4C5OC5(C)CCC4(COC(=O)C4O[C@@]4(C)CCO1)[C@]2(C)[C@]31CO1 (stereo partly specified) the T/C (dose: 1.25 mg/kg/injection, schedule: Q01DX009 (ip), vehicle: Klucel (hydroxypropylcellulose) (HPC)) was 104 % of control, the T/C (dose: 2.5 mg/kg/injection, schedule: Q01DX009 (ip), vehicle: Klucel (hydroxypropylcellulose) (HPC)) was 113 % of control and the T/C (dose: 5.0 mg/kg/injection, schedule: Q01DX009 (ip), vehicle: Klucel (hydroxypropylcellulose) (HPC)) was 118 % of control. The T/C (dose: 10.0 mg/kg/injection, schedule: Q01DX009 (ip), vehicle: Klucel (hydroxypropylcellulose) (HPC)) was 122 % of control.
For OCCN1CCN(CCCOC2=Nc3ccccc3O/C2=C/c2ccccc2)CC1, the T/C (dose: 25.0 mg/kg/injection, schedule: Q04DX003 (ip), vehicle: saline) was 100 % of control, the T/C (dose: 50.0 mg/kg/injection, schedule: Q04DX003 (ip), vehicle: saline) was 100 % of control and the T/C [3] was 98 % of control and 101 % of control.
For COC(=O)CCSCc1ccccc1, the T/C (dose: 60.0 mg/kg/injection, schedule: Q01DX005 (ip), vehicle: saline) was 100 % of control, the T/C (dose: 120.0 mg/kg/injection, schedule: Q01DX005 (ip), vehicle: saline) was 100 % of control and the T/C (dose: 240.0 mg/kg/injection, schedule: Q01DX005 (ip), vehicle: saline) was 109 % of control.
For N#Cc1c(Cl)nc2sccn12, the T/C (dose: 100.0 mg/kg/injection, schedule: Q01DX001 (ip), vehicle: Klucel (hydroxypropylcellulose) (HPC)) was 95 % of control and the T/C (dose: 200.0 mg/kg/injection, schedule: Q01DX001 (ip), vehicle: Klucel (hydroxypropylcellulose) (HPC)) was 103 % of control.
In the case of Nc1ncnc2c1ncn2CC(O)CBr (stereo unspecified), the T/C [15] is reported as 101 % of control, the T/C [16] is reported as 104 % of control and the T/C [17] is reported as 93 % of control.
C1CC2CC1CC2CNCC1CC2CCC1C2 (stereo unspecified) was tested, and the T/C (dose: 12.5 mg/kg/injection, schedule: Q01DX005 (ip), vehicle: Klucel (hydroxypropylcellulose) (HPC)) was 103 % of control, the T/C (dose: 25.0 mg/kg/injection, schedule: Q01DX005 (ip), vehicle: Klucel (hydroxypropylcellulose) (HPC)) was 103 % of control and the T/C [15] was 98 % of control and 101 % of control.
With Cc1cc(C)nc(/C=C/c2ccc(/C=C/c3cc(C)cc(C)n3)cc2)c1 the T/C [12] was 97 % of control, the T/C [13] was 87 % of control and the T/C [14] was 92 % of control.
For O=c1[nH]n(-c2ccccc2)c2ccccc12, the T/C (dose: 12.5 mg/kg/injection, schedule: Q04DX003 (ip), vehicle: saline with Tween-80) was 94 % of control, the T/C (dose: 25.0 mg/kg/injection, schedule: Q04DX003 (ip), vehicle: saline with Tween-80) was 90 % of control and the T/C (dose: 50.0 mg/kg/injection, schedule: Q04DX003 (ip), vehicle: saline with Tween-80) was 90 % of control. For the same compound, the T/C [6] was 95 % of control.

Source: PubChem BioAssay AID330 (DTP/NCI, 2004)
